Laboratory results as given in paper PMC7156724, “Potent BRD4 inhibitor suppresses cancer cell-macrophage interaction” (Nature Communications, 2020).
Several values for one entry are separate records, joined by “and”; a condition that tells them apart may be missing. Equal entries are not always repeated.

Tests used:
MDA-MB231 cells = assay: MTT cell growth assay, MDA-MB231; assay type: cell-based, human; details: 5 days
Protocol: Fig. 2 NHWD-870 inhibited BRD4 phosphorylation and c-MYC expression, and suppressed cell growth. a Representative western blot analysis of p-BRD4 (s484/488), BRD4, c-MYC, and GAPDH after treatment of MDA-MB231, SUM159, A2780 ES-2, and H526 cells with JQ-1 or NHWD-870 at the indicated concentrations for 24 h. GAPDH served as the loading control. Selected from three independent experiments. b MTT assays of H526, A2780, ES-2, and MDA-MB231 cells treated with JQ-1 or NHWD-870 at the indicated concentrations for 5 days. Data are presented as mean ± SEM from three independent experiments. c, d Clonogenic assays of H526, A2780, ES-2 and MDA-MB231 cells treated with 250 nM JQ-1 or NHWD-870 for 5 days. Shown are representative images (c) and quantification of colonies (d). […] Shown are representative images (e) and quantification of relative colony sizes (f). Scale bar, 50 μm. Data are presented as mean ± SEM from five independent experiments. p values were calculated using two-tailed, unpaired t tests in this figure. **p < 0.01; ***p < 0.001. Source data are provided as a Source Data file.
37℃, 5% CO2. […]

[1] = test system: TMD8 large B cell lymphoma; assay: TMD8 large B cell lymphoma model tumor growth; assay type: in vivo, mouse; details: for Tumor volume: n=6, individual animals
From the text: PO, oral administration; QD, once daily; BID, twice daily. b–d Tumor growth curves for A2780 ovarian tumor (n = 5) (b), TMD8 large B cell lymphoma (n = 6) (c), and B16F10 melanoma (n = 5) (d) bearing mice treated with the indicated compounds once daily for 11-21 days. e, f Tumor growth curves for A375 melanoma (n = 6) (e), and patient-derived xenograft (PDX) of melanoma (n = 5) (f) bearing mice treated with the indicated compounds once daily (5 days on, 2 days off) for 21 days. For d–f, NHWD-870 used is NHWD-870-HCl synthesized using Suzuki coupling route. Data are presented as mean ± SEM in (a, b, d, f) and mean + SEM in (c, e). p values were calculated using two-tailed, unpaired t tests. *p < 0.05; **p < 0.01; ***p < 0.001. Source data are provided as a Source Data file.
4–6 weeks old female BALB/c nude mice were used for most experiments, with the exception of 6–8 weeks old female C57BL/6 mice were used for B16F10 experiments, and 6–8 weeks old male BALB/c nude mice and SD rats were used for pharmacokinetic experiments. All animals were purchased from Shanghai SIPPR-Bk Lab Animal Co., Ltd. All animals were housed under a regimen of 12 h light/12 h dark cycles and specific pathogen-free conditions. 5×10^6 NCI-H526, ES-2, MDA-MB231, A2780, A375, B16F10, and TMD-8 cells (0.1 ml) were injected subcutaneously into female nude mice. The melanoma patient-derived xenograft model was derived from a human melanoma sample (BRAF, NARS and NF1 wild type, and p53 mutant) removed from a patient in Xiangya Hospital. Surgically removed tumor fragments were implanted subcutaneously into female NSG mice. When the tumors grew to ~1000 mm^3, they were harvested and cryopreserved or immediately re-implanted for expansion or experiments. Mouse body weight and tumor sizes were measured every 3 days. Once the tumors grew to 150–200 mm^3, mice were treated with the compounds as described in the Figures. 1 × 10^6 A2780 cells (1 ml) were injected into the abdominal cavity of nude mice. Ascitic volume and tumor weight were measured by an electronic balance. All the procedures were evaluated and approved by the Institutional Animal Care and Use Committee of Central South University and Yale University.

[2] = Equilibrium dialysis assay, CD-1 mouse plasma
Protocol: The concentration was calculated using the peak area ratio of analyte and internal […]
The results were calculated by the following equations:
% Unbound = 100 *FC / TC, % Bound = 100 * (1-FC / TC)
% Recovery = 100 * (FC + TC) / T0
TC = Total compound concentration as determined by the calculated concentration on the retentate side of the membrane
FC = Free compound concentration as determined by the calculated concentration on the dialysate side of the membrane […]
Equation of first order kinetics: […]
8. Equilibrium dialysis assay. Binding with plasma protein and recovery rate of NHWD-870 were performed with human, CD-1 mouse and SD rat plasma as […]
described 2. […] The concentration was […]
calculated using the peak area ratio of analyte and internal standard. The results were calculated by the following equations: % Unbound = 100 *FC / TC, % Bound = 100 * (1-FC / TC); % Recovery = 100 * (FC + TC) / T0; TC = Total compound concentration as determined by the calculated concentration on the retentate side of the membrane; FC = Free compound concentration as determined by the (1 picture or pasted object on this page, not shown here) […]
calculated concentration on the dialysate side of the membrane; T0 = To t a l compound concentration as determined before dialysis. […]
10. hERG channel assay. […]
HEK293 cell line stably

## Cc1nnn(C)c1-c1cnc2c3c4cnn(C)c4ccc3n([C@H](c3ccccc3)C3CCOCC3)c2c1 [NHWD-870]
MDA-MB231 cells; MDA-MB231, 0.1 nM
  MTT assay, relative cell number: 0.965 and 0.95 and 0.937
MDA-MB231 cells; MDA-MB231, 1 nM
  MTT assay, relative cell number: 0.701 and 0.703 and 0.725
MDA-MB231 cells; MDA-MB231, 10 nM
  MTT assay, relative cell number: 0.368 and 0.306 and 0.338
MDA-MB231 cells; MDA-MB231, 100 nM
  MTT assay, relative cell number: 0.083 and 0.065 and 0.074
MDA-MB231 cells; MDA-MB231, 500 nM
  MTT assay, relative cell number: 0
MDA-MB231 cells; MDA-MB231, 1000 nM
  MTT assay, relative cell number: 0
MDA-MB231 cells; MDA-MB231, 5000 nM
  MTT assay, relative cell number: 0
MDA-MB231 cells; MDA-MB231, 10000 nM
  MTT assay, relative cell number: 0
[1]; Fig.3c TMD-8, 1.5mg/kg p.o. QD x 21D, day 0
  Tumor volume: 214.469 mm^3 and 165.444 mm^3 and 94.318 mm^3 and 104.496 mm^3 and 146.158 mm^3 and 140.975 mm^3
[1]; Fig.3c TMD-8, 1.5mg/kg p.o. QD x 21D, day 3
  Tumor volume: 338.876 mm^3 and 252.047 mm^3 and 100.523 mm^3 and 149.534 mm^3 and 223.518 mm^3 and 132.449 mm^3
[1]; Fig.3c TMD-8, 1.5mg/kg p.o. QD x 21D, day 7
  Tumor volume: 459.258 mm^3 and 449.651 mm^3 and 146.864 mm^3 and 132.276 mm^3 and 263.192 mm^3 and 174.278 mm^3
[1]; Fig.3c TMD-8, 1.5mg/kg p.o. QD x 21D, day 10
  Tumor volume: 490.697 mm^3 and 432.678 mm^3 and 235.012 mm^3 and 190.412 mm^3 and 150.967 mm^3 and 163.029 mm^3
[1]; Fig.3c TMD-8, 1.5mg/kg p.o. QD x 21D, day 14
  Tumor volume: 640.246 mm^3 and 434.37 mm^3 and 213.016 mm^3 and 174.551 mm^3 and 71.2181 mm^3 and 175.498 mm^3
[1]; Fig.3c TMD-8, 1.5mg/kg p.o. QD x 21D, day 17
  Tumor volume: 730.308 mm^3 and 597.229 mm^3 and 374.112 mm^3 and 196.792 mm^3 and 127.555 mm^3 and 127.945 mm^3
[1]; Fig.3c TMD-8, 1.5mg/kg p.o. QD x 21D, day 21
  Tumor volume: 1151.12 mm^3 and 1193.19 mm^3 and 830.854 mm^3 and 339.119 mm^3 and 375.477 mm^3 and 217.147 mm^3
[1]; Fig.3c TMD-8, 3mg/kg p.o. QD x 21D, day 0
  Tumor volume: 135.749 mm^3 and 160.378 mm^3 and 111.097 mm^3 and 215.602 mm^3 and 96.5 mm^3 and 162.39 mm^3
[1]; Fig.3c TMD-8, 3mg/kg p.o. QD x 21D, day 3
  Tumor volume: 210.016 mm^3 and 166.954 mm^3 and 177.118 mm^3 and 367.777 mm^3 and 150.727 mm^3 and 208.299 mm^3
[1]; Fig.3c TMD-8, 3mg/kg p.o. QD x 21D, day 7
  Tumor volume: 347.833 mm^3 and 254.452 mm^3 and 292.586 mm^3 and 297.998 mm^3 and 182.149 mm^3 and 258.854 mm^3
[1]; Fig.3c TMD-8, 3mg/kg p.o. QD x 21D, day 10
  Tumor volume: 278.167 mm^3 and 325.57 mm^3 and 336.135 mm^3 and 344.695 mm^3 and 159.095 mm^3 and 292.996 mm^3
[1]; Fig.3c TMD-8, 3mg/kg p.o. QD x 21D, day 14
  Tumor volume: 177.492 mm^3 and 209.22 mm^3 and 327.654 mm^3 and 243.833 mm^3 and 100.203 mm^3 and 228.258 mm^3
[1]; Fig.3c TMD-8, 3mg/kg p.o. QD x 21D, day 17
  Tumor volume: 203.37 mm^3 and 180.739 mm^3 and 317.134 mm^3 and 320.512 mm^3 and 84.6294 mm^3 and 268.501 mm^3
[1]; Fig.3c TMD-8, 3mg/kg p.o. QD x 21D, day 21
  Tumor volume: 566.866 mm^3 and 363.185 mm^3 and 475.409 mm^3 and 503.514 mm^3 and 313.1 mm^3 and 324.211 mm^3
[1]; TMD8 large B cell lymphoma model, compared with Ibrutinib
  effect on tumor growth: stronger tumor-suppressive effects
[2]; CD-1, mouse, plasma
  fraction unbound: 0.026
  recovery: 95.2%
[2]; CD-1 mouse plasma, equilibrium dialysis
  % Bound: 97.4%
